Laboratory results published in patent EP0112669A2, “Phenethylamine derivatives and intermediates therefor” (AMERICAN HOME PRODUCTS CORPORATION, priority 1982, dated 1984).
Like-named read-outs stand apart in the source and are kept apart here.

How the values were obtained:
[1] = molecular target: ^3H-imipramine binding in brain tissue
[2] = test system: reserpine-induced hypothermia; assay: Antagonism of reserpine-induced hypothermia; assay type: in vivo, mice; details: for minimal effective dose: Mus musculus, read-out: minimum effective dose (M.E.D.), antagonism of reserpine-induced hypothermia; for potency relative to Compound A in reversal of reserpine-induced hypothermia: compared with Compound A
Procedure: 37, 795-797 (1981); and antagonize reserpine induced hypothermia when tested in accordance with the procedure of Askew, Life Sci. 1, 725-730 (1963).
All mice received 5mg/kg reserpine s.c. 18 h prior to test compound.

muscarinic receptor = details: read-out: Ki (^3H-QNB binding)
[3] = test system: carbachol-stimulated contraction of the guinea-pig ileum; assay: Inhibition of carbachol-stimulated contraction of guinea-pig ileum
[4] = molecular target: T1, synaptosomal uptake of serotonin (14C-5-HT) (Homo sapiens, UniProt P31645); assay: biochemical
T1 construct: from tissue

[5] = molecular target: synaptosomal uptake of norepinephrine (^3H-NE); assay: Inhibition of synaptosomal NE uptake
[6] = unit inferred, read-out: inhibition constants (vs. ^3H-imipramine)
[7] = ip, mice, n = 8 per group, 5mg/kg reserpine s.c. 18 h prior to test compound
[8] = read-out: inhibition constant (Ki) vs. ^3H-imipramine

Sequence of synaptosomal uptake of norepinephrine (^3H-NE) (P23975 whole entry): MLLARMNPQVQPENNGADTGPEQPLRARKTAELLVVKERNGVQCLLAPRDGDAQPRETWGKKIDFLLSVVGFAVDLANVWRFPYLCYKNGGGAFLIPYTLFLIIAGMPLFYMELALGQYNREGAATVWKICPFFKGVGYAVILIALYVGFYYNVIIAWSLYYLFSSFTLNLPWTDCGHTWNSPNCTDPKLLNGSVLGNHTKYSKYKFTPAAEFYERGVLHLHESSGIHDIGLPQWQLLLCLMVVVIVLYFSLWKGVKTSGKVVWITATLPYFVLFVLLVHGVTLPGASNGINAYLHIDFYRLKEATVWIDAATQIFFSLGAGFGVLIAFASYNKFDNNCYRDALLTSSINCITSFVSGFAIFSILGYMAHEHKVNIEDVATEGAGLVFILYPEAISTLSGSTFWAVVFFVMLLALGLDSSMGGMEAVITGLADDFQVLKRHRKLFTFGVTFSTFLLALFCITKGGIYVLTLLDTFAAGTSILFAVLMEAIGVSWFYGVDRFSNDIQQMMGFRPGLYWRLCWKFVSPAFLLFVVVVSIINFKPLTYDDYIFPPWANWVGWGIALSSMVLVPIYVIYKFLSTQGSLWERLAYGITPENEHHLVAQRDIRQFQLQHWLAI
T1 sequence (P31645 whole entry): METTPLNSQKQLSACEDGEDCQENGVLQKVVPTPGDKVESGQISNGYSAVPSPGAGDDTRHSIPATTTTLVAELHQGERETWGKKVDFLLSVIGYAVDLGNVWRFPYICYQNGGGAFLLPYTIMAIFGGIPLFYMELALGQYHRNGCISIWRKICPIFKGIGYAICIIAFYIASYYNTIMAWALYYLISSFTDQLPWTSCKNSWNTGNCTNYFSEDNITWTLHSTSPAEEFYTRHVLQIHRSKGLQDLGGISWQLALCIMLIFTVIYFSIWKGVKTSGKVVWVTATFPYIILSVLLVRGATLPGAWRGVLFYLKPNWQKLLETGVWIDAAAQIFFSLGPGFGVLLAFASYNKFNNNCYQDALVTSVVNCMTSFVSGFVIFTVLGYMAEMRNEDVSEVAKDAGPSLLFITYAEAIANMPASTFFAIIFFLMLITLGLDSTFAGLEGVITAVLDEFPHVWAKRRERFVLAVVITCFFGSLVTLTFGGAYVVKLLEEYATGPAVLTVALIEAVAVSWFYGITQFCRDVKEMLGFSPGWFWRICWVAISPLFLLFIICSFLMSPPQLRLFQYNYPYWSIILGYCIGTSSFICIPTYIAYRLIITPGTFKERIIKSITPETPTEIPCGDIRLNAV

With `CN(C)CC(c1ccc(Br)cc1)C1(O)CCCCC1` (centres unmarked) [Compound D, 1-[1-(4-bromophenyl)-2-(dimethylamino)ethyl]-cyclohexanol] the Ki [1, 6] was 62 nM, the minimal effective dose [2, 7] was 3 mg/kg and the “potency relative to Compound A in reversal of reserpine-induced hypothermia” value ([2]; mice) was “approximately three times as potent”.
`CNCCCN1c2ccccc2CCc2ccccc21` [DMI, desmethyl- imipramine, reference compound] gave a Ki (muscarinic receptor) of […] and a minimal effective dose ([2]; ip) of 0.4 mg/kg.
With `CN(C)CCCN1c2ccccc2CCc2ccccc21` [Imipramine, reference compound] the Ki (muscarinic receptor) was 37 nM and the Kb ([3]; Cavia porcellus, read-out: KB against carbachol-stimulated contraction of the guinea-pig ileum) was roughly 100 nM.
`CN(C)CC(c1ccc(Cl)cc1)C1(O)CCCCC1` (centres unmarked) [Compound C, 1-[1-(4-chlorophenyl)-2-(dimethylamino)ethyl]-cyclohexanol] gave a Ki [1, 8] of 100 nM, an IC50 [4] of 250 nM and a minimal effective dose [2, 7] of 10 mg/kg. For the same compound, the “potency relative to Compound A in reversal of reserpine-induced hypothermia” value ([2]; mice) was “approximately equipotent” and the IC50 [5] was 330 nM.
`CN(C)CC(c1cccc(Br)c1)C1(O)CCCCC1` (centres unmarked) [Compound F, 1-[1-(3-bromophenyl)-2-(dimethylamino)ethyl]-cyclohexanol] was tested, and the Ki [1, 6] was 52 nM, the minimal effective dose [2, 7] was 1 mg/kg and the “potency relative to Compound A in reversal of reserpine-induced hypothermia” value ([2]; mice) was “approximately ten times as potent”.
In the case of `CN(C)CC(c1ccc(Cl)c(Cl)c1)C1(O)CCCCC1` (centres unmarked) [Compound G, 1-[1-(3,4-dichlorophenyl)-2-(dimethylamino)ethyl]-cyclohexanol], the Ki [1, 6] is reported as 37 nM, the minimal effective dose [2, 7] is reported as 3 mg/kg and the “potency relative to Compound A in reversal of reserpine-induced hypothermia” value ([2]; mice) is reported as “approximately three times as potent”. For the same compound, the IC50 [5] was 70 nM.
`CN(C)CC(c1cccc(Cl)c1)C1(O)CCCCC1` (centres unmarked) [Compound E, 1-[1-(3-chlorophenyl)-2-(dimethylamino)ethyl]-cyclohexanol] showed a Ki ([1]; read-out: inhibition constants (vs. ^3H-imipramine)) of 130 nM and a minimal effective dose [2, 7] of 1 mg/kg.
`COc1ccc(C2CN(C)COC23CCCCC3)cc1` (stereo not drawn) [Compound B, 5-(4-methoxyphenyl)-3-methyl-3-aza-l-oxas^piro(5.5) undecane] showed a Ki [1, 8] of 350 nM, an IC50 [4] of 2900 nM and a minimal effective dose [2, 7] of 30 mg/kg. The “potency relative to Compound A in reversal of reserpine-induced hypothermia” value ([2]; mice) was “less potent” and the IC50 [5] was 4700 nM.
In the case of `COc1ccc(C(CN(C)C)C2(O)CCCCC2)cc1` (racemic) [Compound A, 1-[(2-dimethylamino)-1-(4-methoxyphenyl)ethyl]-cyclohexanol], the “activity against carbachol-stimulated contraction of the guinea-pig ileum” value ([3]; at 1 µM) is reported as “inactive”, the minimal effective dose ([2]; ip) is reported as 10 mg/kg and the minimal effective dose ([2]; po) is reported as 10 mg/kg.
